# Measured values reported in patent US4341766A, “Deactivation of antibiotic-hydrolyzing enzymes” (priority 1980, dated 1982).
# Where two headings read alike, the source gives them in different places.
# What was measured:
# E. coli RTEM β-lactamase [1] = molecular target: T1, E. coli RTEM β-lactamase (Escherichia coli, UniProt P62593); test: in vitro treatment of E. coli RTEM β-lactamase (deactivation); assay type: biochemical; details: for turnovers before deactivation: number of molecules of compound needed to inactivate one β-lactamase molecule; for t1/2 for deactivation: in vitro, E. coli RTEM β-lactamase; for comparative efficacy as β-lactamase deactivating agent: in words, comparison of the four compounds of Table I
# T1 construct: mature periplasmic enzyme
# E. coli RTEM β-lactamase [2] = molecular target: T1, E. coli RTEM β-lactamase; test: rate constant (kcat) of the corresponding N-acyl derivative of 6-aminopenicillanic acid as β-lactamase substrate; assay type: biochemical
# Text: We believe the acyl-enzyme intermediates either deacylate (resulting in the undesirable restoration of the lactamase) or fragment (resulting in the desirable deactivation of the lactamase). […] This can be achieved by employing an N-acyl derivative of 6-aminopenicillanic acid sulfone in which the corresponding N-acyl derivative of 6-aminopenicillanic acid is a very poor substrate for β-lactamase. Since the rate constant (kcat) of an N-acyl derivative of 6-aminopenicillanic acid is a measure of its ability to act as a substrate, this constant provides the basis for defining the class of sulfones used in the invention.
# Quinacillin sulfone's effectiveness is shown both by the low inactivation time, and by the low number of turnovers before inactivation (the low number of molecules of quinacillin sulfone needed to inactivate one β-lactamase molecule).
# T1 sequence (P62593 24-286 limits assumed): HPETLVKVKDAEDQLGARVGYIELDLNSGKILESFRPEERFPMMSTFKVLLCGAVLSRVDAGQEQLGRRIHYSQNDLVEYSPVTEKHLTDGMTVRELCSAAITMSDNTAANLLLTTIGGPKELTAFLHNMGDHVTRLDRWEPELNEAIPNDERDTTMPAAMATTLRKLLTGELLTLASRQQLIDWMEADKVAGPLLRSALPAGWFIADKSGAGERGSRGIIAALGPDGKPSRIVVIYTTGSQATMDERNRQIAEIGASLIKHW
Compound,turnovers before deactivation (E. coli RTEM β-lactamase [1]),kcat of corresponding N-acyl derivative of 6-aminopenicillanic acid (E. coli RTEM β-lactamase [2]),t1/2 for deactivation (E. coli RTEM β-lactamase [1]),comparative efficacy as β-lactamase deactivating agent (E. coli RTEM β-lactamase [1]),"kcat of corresponding N-acyl derivative of 6-aminopenicillanic acid (E. coli RTEM β-lactamase [2]; value belongs to the parent (non-sulfone) penicillin corresponding to the listed sulfone, substrate capability for β-lactamase)"
"CC1(C)[C@H](C(=O)O)N2C(=O)C[C@H]2S1(=O)=O [CP-45, 899, 6-des-aminopenicillanic acid sulfone, reference compound]","4,500",40 s⁻¹,–,–,–
CC1(C)[C@H](C(=O)O)N2C(=O)[C@@H](NC(=O)c3nc4ccccc4nc3C(=O)O)[C@H]2S1(=O)=O [quinacillin sulfone],400,–,~ 1 min,most effective of the four compounds listed,–
COc1cccc(OC)c1C(=O)N[C@@H]1C(=O)N2[C@@H](C(=O)O)C(C)(C)S(=O)(=O)[C@H]12 [methicillin sulfone],"22,500",–,~ 1 min,"effective deactivating agents, though less effective than quinacillin sulfone",–
CC1(C)S[C@@H]2[C@H](NC(=O)c3nc4ccccc4nc3C(=O)O)C(=O)N2[C@H]1C(=O)O [quinacillin],–,–,–,–,lowest kcat value
Cc1onc(-c2ccccc2Cl)c1C(=O)N[C@@H]1C(=O)N2[C@@H](C(=O)O)C(C)(C)S(=O)(=O)[C@H]12 [cloxacillin sulfone],"17,000",–,1.5 min,"effective deactivating agents, though less effective than quinacillin sulfone",–
